Data set [1] has as its system murine L1210 leukemia cell. Briefly: Antitumor effect on murine L1210 leukemia cell (increase in life-span of inoculated mice). Format: in vivo, murine; male CDF1 mice. To be noted: for ILSmax (maximum percent increase in life-span) / ILS50 (dose which shows 50% of the ILS value by 5 administrations) / dose corresponding to ILSmax: L1210, i.p. once a day for 5 days; for ILSmax (maximum percent increase in life-span): 30 days observation; for ILS50 (dose which shows 50% of the ILS value by 5 administrations): linear regression; for TI (therapeutic index, LD50 value/ILS50 value): L1210. The protocol:
(§1) Murine L1210 leukemia cells (1×10^5 cells) were inoculated peritoneally into six-week-old male CDF1 mice on day 0. From the next day after the inoculation, a drug (the compound of the invention or a compound for comparison) was administered peritoneally once a day for 5 days. After 30 days of observation, the percent increase in life-span (ILS) was calculated as follows: […]
(§2) T: mean survival days of the drug-treated group
(§3) C: mean survival days of control group
(§4) In these tables, ILSmax means maximum ILS value (%), and corresponding dose (mg/kg) is Shown in parenthesis.

Data set [2] has as its system cisplatin-resistant murine L1210 leukemia cell (L1210/DDP). Briefly: Antitumor effect on cisplatin-resistant murine L1210 leukemia cell (L1210/DDP). In kind it is in vivo, murine; male CDF1 mice. To be noted: for ILSmax (maximum percent increase in life-span) / dose corresponding to ILSmax / ILS50 (dose which shows 50% of the ILS value by 5 administrations): i.p. once a day for 5 days; for ILSmax (maximum percent increase in life-span): 30 days observation; for ILS50 (dose which shows 50% of the ILS value by 5 administrations): linear regression. The protocol:
as §1, §2, §3
In these tables, ILSmax means maximum ILS value (%), and corresponding dose (mg/kg) is Shown in parenthesis. In this test, cisplatin and carboplatin were respectively tested in each test lot for accurate comparison.
Antitumor effect on cisplatin-resistant murine L1210 leukemia cell (L1210/DDP):
The test of Test Example 1 was repeated except that cisplatin-resistant murine L1210 leukemia cell (L1210/DDP) was used instead of murine L1210 leukemia cell.

For data set [3], the system named is murine P388 leukemia cell. Briefly: Antitumor effect on murine P388 leukemia cell. To be noted: for ILSmax (maximum percent increase in life-span) / ILS50 (dose which shows 50% of the ILS value by 5 administrations) / dose corresponding to ILSmax: P388, i.p. once a day for 5 days; for ILSmax (maximum percent increase in life-span): 30 days observation; for ILS50 (dose which shows 50% of the ILS value by 5 administrations): linear regression; for TI (therapeutic index, LD50 value/ILS50 value): P388. In kind it is in vivo, murine; male CDF1 mice. The protocol: as §1, §2, §3, §4
Antitumor effect on murine P388 leukemia cell:
The test of Test Example 1 was repeated except that 1×10^6 of murine P388 leukemia cells were used instead of 1×10^5 of murine L1210 leukemia cells.

Data set [4] in a line: 50% lethal dose by single peritoneal administration, obtained at the time of the dose setting. Format: in vivo, CDF1 mice.
From the text: as §4

SMILES strings stand for the structures.

The record followed here is patent US5498780A, “Platinum complex and malignant tumor treating drug containing the same” (SS Pharmaceutical Co., Ltd., priority 1994, dated 1996).

Consider `N.ONC1CCCCC1.[Cl][Pt][Cl]` [Compound No. 4, cis-dichloroammine (N-cyclohexylhydroxylamine)platinum(II)], for which, in data set [1] (Table 4 test lot), the “ILSmax (maximum percent increase in life-span)” value is recorded as > 120.0%; the “ILS50 (dose which shows 50% of the ILS value by 5 administrations)” value worked out at 2.1 mg/kg; the “dose corresponding to ILSmax” value is recorded as 8.0 mg/kg; the “TI (therapeutic index, LD50 value/ILS50 value)” value was 42.0. Moreover, in data set [2] (Table 6 test lot), the “TI (therapeutic index, LD50 value/ILS50 value)” value is on record as > 88.2; the “ILSmax (maximum percent increase in life-span)” value was > 183.0%; the “dose corresponding to ILSmax” value worked out at 2.0 mg/kg; the “ILS50 (dose which shows 50% of the ILS value by 5 administrations)” value is given as < 1.0 mg/kg. In addition, in data set [3] (Table 8 test lot), the “ILSmax (maximum percent increase in life-span)” value is 108.3%; the “ILS50 (dose which shows 50% of the ILS value by 5 administrations)” value came out at 1.1 mg/kg; the “dose corresponding to ILSmax” value is recorded as 16.0 mg/kg; the “TI (therapeutic index, LD50 value/ILS50 value)” value was found to be 80.2. Moreover, the “LD50 (50% lethal dose)” value in data set [4] turned out to be 88.2 mg/kg.

In the case of `CCON.N.[Cl][Pt][Cl]` [Compound No. 5, cis-dichloroammine (O-ethylhydroxylamine)platinum(II)], in data set [1] (Table 4 test lot), the “ILSmax (maximum percent increase in life-span)” value is given as > 109.4%; the “ILS50 (dose which shows 50% of the ILS value by 5 administrations)” value was found to be 0.9 mg/kg; the “dose corresponding to ILSmax” value came to 4.0 mg/kg; the “TI (therapeutic index, LD50 value/ILS50 value)” value came out at 24.6. In data set [2] (Table 6 test lot), the “TI (therapeutic index, LD50 value/ILS50 value)” value was 27.6; the “ILSmax (maximum percent increase in life-span)” value is listed as > 152.8%; the “dose corresponding to ILSmax” value was found to be 2.0 mg/kg; the “ILS50 (dose which shows 50% of the ILS value by 5 administrations)” value stood at 0.8 mg/kg. In data set [3] (Table 8 test lot), the “ILSmax (maximum percent increase in life-span)” value is > 129.6%; the “ILS50 (dose which shows 50% of the ILS value by 5 administrations)” value worked out at 0.6 mg/kg; the “dose corresponding to ILSmax” value was 4.0 mg/kg; the “TI (therapeutic index, LD50 value/ILS50 value)” value turned out to be 36.8. Besides, the “LD50 (50% lethal dose)” value in data set [4] was found to be 22.1 mg/kg.

In the case of `CC(C)(C)ON.N.[Cl][Pt][Cl]` [Compound No. 7, cis-dichloroammine (O-tert-butylhydroxylamine)platinum(II)], in data set [1] (Table 5 test lot), the “ILSmax (maximum percent increase in life-span)” value is > 181.3%; the “ILS50 (dose which shows 50% of the ILS value by 5 administrations)” value is reported as 1.5 mg/kg; the “dose corresponding to ILSmax” value is on record as 8.0 mg/kg; the “TI (therapeutic index, LD50 value/ILS50 value)” value stood at 14.7. Further, in data set [2] (Table 7 test lot), the “TI (therapeutic index, LD50 value/ILS50 value)” value is > 22.1; the “ILSmax (maximum percent increase in life-span)” value is > 206.1%; the “dose corresponding to ILSmax” value was determined as 1.0 mg/kg; the “ILS50 (dose which shows 50% of the ILS value by 5 administrations)” value is recorded as < 1.0 mg/kg. Besides, in data set [3] (Table 9 test lot), the “ILSmax (maximum percent increase in life-span)” value is on record as 92.3%; the “ILS50 (dose which shows 50% of the ILS value by 5 administrations)” value is < 1.0 mg/kg; the “dose corresponding to ILSmax” value is 2.0 mg/kg; the “TI (therapeutic index, LD50 value/ILS50 value)” value is recorded as > 22.1. Also, in data set [4], the “LD50 (50% lethal dose)” value was determined as 22.1 mg/kg.

Turning to `CCCO[NH][Pt]([NH2])([Cl])[Cl]` [Compound No. 8, cis-dichloroammine (O-propylhydroxylamine)platinum(II)], in data set [1] (Table 5 test lot), the “ILSmax (maximum percent increase in life-span)” value is listed as > 131.3%; the “ILS50 (dose which shows 50% of the ILS value by 5 administrations)” value is listed as 0.8 mg/kg; the “dose corresponding to ILSmax” value is 4.0 mg/kg; the “TI (therapeutic index, LD50 value/ILS50 value)” value came to 13.8. In addition, in data set [2] (Table 7 test lot), the “TI (therapeutic index, LD50 value/ILS50 value)” value is on record as > 22.0; the “ILSmax (maximum percent increase in life-span)” value is reported as > 175.5%; the “dose corresponding to ILSmax” value was 1.0 mg/kg; the “ILS50 (dose which shows 50% of the ILS value by 5 administrations)” value is given as < 0.5 mg/kg. Besides, in data set [3] (Table 9 test lot), the “ILSmax (maximum percent increase in life-span)” value stood at 101.9%; the “ILS50 (dose which shows 50% of the ILS value by 5 administrations)” value is given as < 0.5 mg/kg; the “dose corresponding to ILSmax” value was 2.0 mg/kg; the “TI (therapeutic index, LD50 value/ILS50 value)” value is reported as > 22.0. Also, the “LD50 (50% lethal dose)” value in data set [4] is recorded as 11.0 mg/kg.

With `N.NOC1CCCCC1.[Cl][Pt][Cl]` [Compound No. 9, cis-dichloroammine (O-cyclohexylhydroxylamine)platinum(II)], in data set [1] (Table 5 test lot), the “ILSmax (maximum percent increase in life-span)” value is 108.8%; the “ILS50 (dose which shows 50% of the ILS value by 5 administrations)” value came out at 1.3 mg/kg; the “dose corresponding to ILSmax” value is recorded as 4.0 mg/kg; the “TI (therapeutic index, LD50 value/ILS50 value)” value is reported as 17.0. Also, in data set [2] (Table 7 test lot), the “TI (therapeutic index, LD50 value/ILS50 value)” value is > 22.1; the “ILSmax (maximum percent increase in life-span)” value is recorded as > 206.1%; the “dose corresponding to ILSmax” value is on record as 1.0 mg/kg; the “ILS50 (dose which shows 50% of the ILS value by 5 administrations)” value is < 1.0 mg/kg. Further, in data set [3] (Table 9 test lot), the “ILSmax (maximum percent increase in life-span)” value came to 114.4%; the “ILS50 (dose which shows 50% of the ILS value by 5 administrations)” value is < 1.0 mg/kg; the “dose corresponding to ILSmax” value amounted to 4.0 mg/kg; the “TI (therapeutic index, LD50 value/ILS50 value)” value is recorded as > 22.1. In addition, the “LD50 (50% lethal dose)” value in data set [4] came to 22.1 mg/kg.
